From PMC11859181, “Alternaria alternata (Fr) Keissl Crude Extract Inhibits HIV Subtypes and Integrase Drug-Resistant Strains at Different Stages of HIV Replication” (Pharmaceuticals, 2025)
Converted amounts (≈) assume the structure as drawn. Like-named read-outs stand apart in the source and are kept apart here.

Experiments:
[1] = MTT cell viability and cytotoxicity assay; assay type: cell-based; settings: human, TZM-bl cells
Method: A. alternata crude extract cell cytotoxicity and viability were assessed by MTT (3-[4, 5-dimethylthiazol-2-yl]-2, 5-diphenyltetrazolium bromide) cell viability assay using the CYQUANT MTT cell proliferation kit (Thermo Fisher Scientific, Waltham, MA, USA). A 96-well culture plate was seeded with 15,000 TZM-bl cells/200 µL of DMEM per well and incubated at 37 °C with 5% CO2.). Following this, 10 µL of the drug control azidothymidine (NIH AIDS Research and Reference Reagent Programme) and the A. alternata crude extract were diluted five-fold, and control wells where neither the control drug AZT nor the crude extract was added were followed by incubation at 37 °C with 5% CO2 and 95% humidity for 48 h. Ten microlitres of 12 mM of MTT solution was added to each well and incubated for 4 h at 37 °C with 5% CO2 and 95% humidity. Then, 50 µL of 100% DMSO were added to each well and incubated for 10 min. The absorbance was then measured at a wavelength of 540 nm using the Victor Nivo microplate reader (PerkinElmer, Waltham, MA, USA). The percentage of cell viability was calculated using the formula below:%Cell viability = (Sample absorbance − media control)/(Mean media control absorbance) × 100
The drug control azidothymidine and A. alternata crude extract CC50 (50% cytotoxic concentration) were determined using GraphPad Prism software (v.5) by dose-response curve.

[2] = system: PC 148 (subtype A) HIV-1 virus; assay: microbe, parasite or virus in culture; assay type: cell-based; settings: Human immunodeficiency virus 1, TZM-bl
[3] = system: MC 2297 (subtype A) HIV-1 virus; assay: microbe, parasite or virus in culture; assay type: cell-based; settings: Human immunodeficiency virus 1, TZM-bl
[4] = system: pNL4.3 (subtype B) HIV-1 virus; assay: Luciferase-based antiviral assay, pNL4.3 (wild type); assay type: cell-based
[5] = system: YU2 (subtype B) HIV-1 virus; assay: microbe, parasite or virus in culture; assay type: cell-based; settings: Human immunodeficiency virus 1, TZM-bl
[6] = system: CM7 (subtype C) HIV-1 virus; assay: microbe, parasite or virus in culture; assay type: cell-based; settings: Human immunodeficiency virus 1, TZM-bl
[7] = system: CM9 (subtype C) HIV-1 virus; assay: microbe, parasite or virus in culture; assay type: cell-based; settings: Human immunodeficiency virus 1, TZM-bl
[8] = system: PC 60 (subtype D) HIV-1 virus; assay: microbe, parasite or virus in culture; assay type: cell-based; settings: Human immunodeficiency virus 1, TZM-bl
[9] = system: PC 178 (subtype D) HIV-1 virus; assay: microbe, parasite or virus in culture; assay type: cell-based; settings: Human immunodeficiency virus 1, TZM-bl
[10] = system: integrase drug-resistant strain T66K; assay: microbe, parasite or virus in culture; assay type: cell-based, HIV-1; settings: for IC50: Human immunodeficiency virus 1, TZM-bl, read-out: IC50 (T66K); for inhibition at 300 µg/mL: Human immunodeficiency virus 1, read-out: inhibition of HIV replication; for fold change (FC) T66K: drug-resistant strain IC50/wild-type IC50
[11] = system: integrase drug-resistant strain S230R; assay: microbe, parasite or virus in culture; assay type: cell-based, HIV-1; settings: for IC50: Human immunodeficiency virus 1, TZM-bl, read-out: IC50 (S230R); for inhibition at 300 µg/mL: Human immunodeficiency virus 1, read-out: inhibition of HIV replication; for fold change (FC) S230R: drug-resistant strain IC50/wild-type IC50
[12] = system: integrase drug-resistant strain T66K; design: method as in PMID 18625269; settings: previously reported; cited from earlier work
[13] = system: integrase drug-resistant strain S230R; settings: previously reported; cited from earlier work
[14] = Human immunodeficiency virus 1, read-out: IC50 (WT)

Row | Structure (SMILES) | viability at 48 h [1] | CC50 at 48 h ([1]; 48 h, triplicate) | IC50 [2] | IC50 [3] | IC50 ([4]; Human immunodeficiency virus 1, TZM-bl) | IC50 [5] | IC50 [6] | IC50 [7] | IC50 [8] | IC50 [9] | IC50 [4, 14] | IC50 [10] | inhibition at 300 µg/mL [10] | fold change (FC) T66K [10] | IC50 [11] | inhibition at 300 µg/mL [11] | fold change (FC) S230R [11] | FC conferred by T66K mutation [12] | FC in susceptibility conferred by S230R mutation [13]
1 | Cc1cn([C@H]2C[C@H](N=[N+]=[N-])[C@@H](CO)O2)c(=O)[nH]c1=O [Azidothymidine, azidothymidine] | > 80% | 385 ± 6.29 µg/mL (≈ 1440 µM) | 0.0403 ± 0.002 µg/mL (≈ 0.151 µM) | 0.0138 ± 0.001 µg/mL (≈ 0.0518 µM) | 0.0338 ± 0.004 µg/mL (≈ 0.126 µM) | 0.0423 ± 0.004 µg/mL (≈ 0.158 µM) | 0.058 ± 0.009 µg/mL (≈ 0.217 µM) | 0.0924 ± 0.007 µg/mL (≈ 0.346 µM) | 0.078 ± 0.005 µg/mL (≈ 0.292 µM) | 0.0813 ± 0.003 µg/mL (≈ 0.304 µM) |  |  |  |  |  |  |  |  | 
2 | C[C@@H]1CCO[C@H]2Cn3cc(C(=O)NCc4ccc(F)cc4F)c(=O)c(O)c3C(=O)N12 [Dolutegravir, dolutegravir] |  |  |  |  |  |  |  |  |  |  | 0.175 ± 0.019 µg/mL (≈ 0.418 µM) | 0.327 ± 0.031 µg/mL (≈ 0.78 µM) | 100% | 1.864 | 0.383 ± 0.04 µg/mL (≈ 0.914 µM) | 100% | 2.166 | 2 | 3.85
3 | Cc1nnc(C(=O)NC(C)(C)c2nc(C(=O)NCc3ccc(F)cc3)c(O)c(=O)n2C)o1 [Raltegravir, raltegravir] |  |  |  |  |  |  |  |  |  |  | 0.0364 ± 0.001 µg/mL (≈ 0.082 µM) | 0.479 ± 0.078 µg/mL (≈ 1.08 µM) | 100% | 13.15 | 0.0475 ± 0.0016 µg/mL (≈ 0.107 µM) | 100% | 1.305 | 9.6 | 1.52
